Literature values, collected in patent US20210115493A1, “METHODS FOR DETERMINING A DRUG DOSING REGIMEN” (Clear Creek Bio, Inc., priority 2019, published 2021).

Columns and labels:
solid tumor malignancies = conditions: administered over a 5-day period followed by a 3-week gap, or once per week for three weeks followed by a 1-week gap

Cc1c(-c2ccc(-c3ccccc3F)cc2)nc2ccc(F)cc2c1C(=O)O [brequinar, 6-fluoro-2-(2′-fluoro-1,1′biphenyl-4-yl)-3-methyl-4-quinoline carboxylic acid]
efficacy in treatment of solid tumor malignancies (solid tumor malignancies): ineffective | adverse effects of daily administration of high doses (mouse model of AML): weight loss, anemia, and thrombocytopenia
